# Source: patent publication US11999727B2 (Tango Therapeutics, Inc., priority 2020, dated 2024)
# Read-outs that look alike come from different tables or passages of the source.
# Experiments:
# PRMT5 [1] = biological target: T1, PRMT5 (Homo sapiens, UniProt O14744); test: PRMT5 biochemical IC50 assay with SAM as cofactor; conditions: PRMT5, SAM as cofactor; read-out: SAM IC50
# T1 construct: purchased Viva (custom protein)
# PRMT5 [2] = biological target: T1, PRMT5; test: PRMT5 biochemical IC50 assay with no cofactor; conditions: PRMT5, no cofactor
# Source text: Table 1 indicates IC50 values (μM) against PRMT5 for exemplary compounds in the presence of SAM as cofactor, with no cofactor, and with MTA as cofactor, respectively (columns 4-6). […] Ki values can be calculated from the IC50 values as described in the Examples section. As detailed in the Examples section, for the assay performed in the presence of SAM, IC50=Ki×1.5 (Ki=IC50/1.5).
# PRMT5 [3] = biological target: T1, PRMT5; test: PRMT5 biochemical IC50 assay with MTA as cofactor; conditions: PRMT5, MTA as cofactor; read-out: MTA IC50
# [4] = system: HAP1 MTAP-intact cell line; test: SDMA in-cell western assay, HAP1 MTAP-intact; format: cell-based; conditions: HAP1 MTAP-intact, read-out: MTAP HAP1 intact IC50
# How it was run: (§1)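 Compounds were tested in HAP1 cells differing only in MTAP status (endogenous expression versus null). Cellular SDMA levels were then measured by in-cell western, giving an IC50 in each background.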
# [5] = system: HAP1 MTAP-deleted cell line; test: SDMA in-cell western assay, HAP1 MTAP-deleted; format: cell-based; conditions: for IC50: HAP1 MTAP-deleted; for MTAP intact/deleted ratio: IC50 ratio HAP1 MTAP-intact / HAP1 MTAP-deleted
# How it was run: as §1
# [6] = system: HAP1 MTAP-deleted cell line; test: Viability assay, MTAP-deleted cell line; format: cell-based; conditions: read-out: HAP1 MTAP deleted viability
# Source text: Table 1 additionally indicates IC50 values in a viability assay for the MTAP-deleted cell line (column 10), indicating the effect of treatment with compound on cell survival.
# [7] = read-out: No Cofactor/ rel IC50
# [8] = Homo sapiens, HAP1, SDMA in-cell western
# [9] = Homo sapiens, HAP1, SDMA in-cell western, read-out: HAP 1 MTAP deleted IC50
# [10] = Homo sapiens, HAP1, viability assay, MTAP-deleted cell line
# [11] = Homo sapiens, HAP1, SDMA in-cell western, read-out: HAP1 MTAP deleted IC50
# T1 sequence (O14744 whole entry): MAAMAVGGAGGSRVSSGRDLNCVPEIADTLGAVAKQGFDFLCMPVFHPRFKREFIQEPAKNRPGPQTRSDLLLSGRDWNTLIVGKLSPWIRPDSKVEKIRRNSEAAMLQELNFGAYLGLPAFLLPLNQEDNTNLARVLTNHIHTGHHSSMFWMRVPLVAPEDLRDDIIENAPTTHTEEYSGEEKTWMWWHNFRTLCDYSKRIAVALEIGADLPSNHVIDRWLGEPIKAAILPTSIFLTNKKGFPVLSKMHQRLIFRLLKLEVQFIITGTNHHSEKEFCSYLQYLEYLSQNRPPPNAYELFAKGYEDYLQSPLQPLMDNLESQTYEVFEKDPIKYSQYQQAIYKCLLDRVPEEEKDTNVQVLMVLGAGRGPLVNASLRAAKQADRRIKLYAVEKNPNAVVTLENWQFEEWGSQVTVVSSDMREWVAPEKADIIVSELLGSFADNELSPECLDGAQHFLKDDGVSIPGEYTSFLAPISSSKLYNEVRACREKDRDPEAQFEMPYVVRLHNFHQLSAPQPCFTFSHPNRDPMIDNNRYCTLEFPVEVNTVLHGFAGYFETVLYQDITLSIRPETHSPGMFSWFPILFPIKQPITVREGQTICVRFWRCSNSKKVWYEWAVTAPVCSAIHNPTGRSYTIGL
# T1 sequence (Q9BQA1 whole entry partner): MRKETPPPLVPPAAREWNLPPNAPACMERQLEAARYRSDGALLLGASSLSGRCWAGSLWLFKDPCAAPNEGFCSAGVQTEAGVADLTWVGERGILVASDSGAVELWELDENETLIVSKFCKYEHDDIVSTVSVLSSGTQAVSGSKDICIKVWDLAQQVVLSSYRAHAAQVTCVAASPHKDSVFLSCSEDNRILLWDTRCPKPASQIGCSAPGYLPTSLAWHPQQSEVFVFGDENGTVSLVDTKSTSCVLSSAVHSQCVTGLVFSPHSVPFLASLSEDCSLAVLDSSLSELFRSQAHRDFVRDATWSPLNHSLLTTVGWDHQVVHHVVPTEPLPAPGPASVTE
SMILES,IC50 (PRMT5 [1]),IC50 (PRMT5 [2]; [7]),IC50 (PRMT5 [3]),"IC50 [4, 8]","IC50 [5, 9]",MTAP intact/deleted ratio ([5]; SDMA in-cell western),"IC50 [6, 10]","IC50 ([6]; Homo sapiens, HAP1, viability, HAP1 MTAP-deleted cell line)",IC50 (PRMT5 [2]; read-out: No Cofactor/rel IC50),"IC50 [5, 11]",IC50 ([4]; SDMA in-cell western),"IC50 ([5]; SDMA in-cell western, read-out: HAP1 MTAP deleted IC50)","IC50 ([6]; viability assay, MTAP-deleted cell line)","IC50 ([6]; Homo sapiens, HAP1, viability IC50, MTAP-deleted cell line)"
"NC(=O)c1cncc(NC(=O)C(=O)N2CCCC[C@@H]2c2ccccc2)c1 (single isomer, unassigned) [Compound 85]",0.05 to 0.5 µM,0.05 to 0.5 µM,< 0.05 µM,> 1 µM,0.1 to 1 µM,A (an IC50 ratio greater than or equal to 10 fold),> 10 µM,,,,,,,
"C[C@@H]1CC[C@@H](c2ccc3sc(CCN(C)C)nc3c2)N(C(=O)C(=O)Nc2cncc(C(N)=O)c2)C1 (racemic) [Compound 1355, 5-(2-(2-(2-(2-(dimethylamino)ethyl)benzo[d]thiazol-5-yl)-5-methylpiperidin-1-yl)-2-oxoacetamido)nicotinamide]",0.05 to 0.5 µM,0.05 to 0.5 µM,< 0.05 µM,0.1 to 1 µM,< 0.1 µM,A (an IC50 ratio greater than or equal to 10 fold),,< 1 µM,,,,,,
"C[C@@H]1CC[C@@H](c2ccc(N)nc2)N(C(=O)C(=O)Nc2cncc(C(N)=O)c2)C1 (single isomer, unassigned) [Compound 492]",0.05 to 0.5 µM,,< 0.05 µM,> 1 µM,,A (an IC50 ratio greater than or equal to 10 fold),1 to 10 µM,,< 0.05 µM,< 0.1 µM,,,,
"Cc1cccc([C@H]2CCCCN2C(=O)C(=O)Nc2cnc(N)c(C)c2)c1 (single isomer, unassigned) [Compound 54]",0.05 to 0.5 µM,0.05 to 0.5 µM,< 0.05 µM,> 1 µM,0.1 to 1 µM,A (an IC50 ratio greater than or equal to 10 fold),1 to 10 µM,,,,,,,
"COc1ncc(NC(=O)C(=O)N2CCCCC2c2ccccc2)cc1C(N)=O (single isomer, unassigned) [Compound 202, 2-methoxy-5-(2-oxo-2-(2-phenylpiperidin-1-yl)acetamido)nicotinamide]",0.05 to 0.5 µM,,< 0.05 µM,,,A (an IC50 ratio greater than or equal to 10 fold),,,0.05 to 0.5 µM,,> 1 µM,0.1 to 1 µM,> 10 µM,
"COc1cc([C@@H]2CC[C@@H](C)CN2C(=O)C(=O)Nc2cnc(N)c(C)c2)ccn1 (single isomer, unassigned) [Compound 545]",0.05 to 0.5 µM,,< 0.05 µM,0.1 to 1 µM,< 0.1 µM,B (an IC50 ratio greater than or equal to 3 fold but lower than 10 fold),,,< 0.05 µM,,,,,< 1 µM
"CCc1cc(NC(=O)C(=O)N2C[C@H](C)[C@H](OC)C[C@H]2c2ccc3scnc3c2)cnc1N (single isomer, unassigned) [Compound 1138]",> 0.5 µM,,> 0.5 µM,> 1 µM,,,1 to 10 µM,,> 0.5 µM,0.1 to 1 µM,,,,
"CCC(C)C1CCCCN1C(=O)C(=O)Nc1cnc(N)c(C)c1 (centres unmarked) [Compound 232, N-(6-amino-5-methyl-3-pyridyl)-2-oxo-2-(2-sec-butyl-1-piperidyl)acetamide]",> 0.5 µM,,0.05 to 0.5 µM,> 1 µM,,B (an IC50 ratio greater than or equal to 3 fold but lower than 10 fold),> 10 µM,,> 0.5 µM,> 1 µM,,,,
"Cc1cc(NC(=O)C(=O)N2C[C@H](C)CC[C@@H]2C2CCCCC2)cnc1N (racemic) [Compound 175, N-(6-amino-5-methyl-3-pyridyl)-2-[(2R,5R)-2-cyclohexyl-5-methyl-1-piperidyl]-2-oxo-acetamide]",> 0.5 µM,,0.05 to 0.5 µM,> 1 µM,,B (an IC50 ratio greater than or equal to 3 fold but lower than 10 fold),> 10 µM,,> 0.5 µM,> 1 µM,,,,
